# Values quoted from earlier work, collected in patent US9781921B2, “Emulsifiable concentrate formulation” (Huntsman Corporation Australia Pty Limited, priority 2012, dated 2017).
# Tested on: mouse
# Conditions: summary of Table 2
structure (smiles),measurement,value
"CC(=O)OCc1ccccc1 [Benzyl Acetate, benzyl acetate]",Toxicity,relatively low toxicity
